Measured values reported in patent US20050100888A1, “Methods based on hormone dependency of primary cancer cells” (Imperial College Innovations Limited, priority 2002, published 2005).

How the values were obtained:
estrogen receptor (ER) [1] = target: T1, estrogen receptor (ER) (Homo sapiens, UniProt P03372); settings: infected MCF7 cells
T1 sequence (P03372 1-595): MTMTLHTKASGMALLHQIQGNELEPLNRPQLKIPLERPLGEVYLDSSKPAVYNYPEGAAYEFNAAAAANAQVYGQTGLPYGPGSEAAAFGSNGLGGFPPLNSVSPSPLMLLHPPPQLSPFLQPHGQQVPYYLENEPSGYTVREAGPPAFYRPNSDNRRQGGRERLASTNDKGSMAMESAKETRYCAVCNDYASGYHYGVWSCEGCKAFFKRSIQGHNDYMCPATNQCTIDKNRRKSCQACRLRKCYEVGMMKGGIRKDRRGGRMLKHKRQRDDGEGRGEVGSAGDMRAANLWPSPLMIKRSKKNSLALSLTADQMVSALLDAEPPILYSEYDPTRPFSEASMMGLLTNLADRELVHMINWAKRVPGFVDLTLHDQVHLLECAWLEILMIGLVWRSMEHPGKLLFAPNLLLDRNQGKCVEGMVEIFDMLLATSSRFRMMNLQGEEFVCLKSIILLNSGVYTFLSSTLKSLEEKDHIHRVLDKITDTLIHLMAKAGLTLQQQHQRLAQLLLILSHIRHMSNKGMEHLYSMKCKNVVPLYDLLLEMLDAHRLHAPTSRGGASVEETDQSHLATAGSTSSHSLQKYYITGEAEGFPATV

estrogen receptor (ER) [2] = target: T1, estrogen receptor (ER); settings: ER positive cell lines (MCF-7, T47-D, ZR75-1, BT474), virus 100:1, ligands 10^−7M
Method: (§1) Reporter Gene Assay 48 hours after virus infection, 20 ul of 20% Triton in PBS was added to each well and incubated at RT for 10 minutes. […] (CRPG) made up in TBS at a concentration of 8 mg/ml was then added to the wells and the plate was incubated, foil-wrapped, at 37° C. until a colour change was observed. Plate readings were taken at a wavelength of 547 nm.

estrogen receptor (ER) [3] = assay: adenoERreporter assay in breast cancer cells from metastatic effusions (pleural, ascites); type: cell-based, human
Excerpt: In the case of metastatic fluid, 100 mls of the fluid was sent for cytological examination and staining for ER and PR. The remaining fluid was centrifuged and the cell pellets were pooled. This was re-suspended in RPMI-1640/1% FCS and tumour cell numbers estimated as before. If the cells were in clusters, trypsin/EDTA (Sigma, Poole, UK) was used to obtain single cell suspensions before filtering to remove any debris. The remaining steps were as above. The purified cells were either infected immediately or cultured for a few days prior to infection.
(§2) For infections of primary cells, 6-10,000 cells/well were allowed and exposed to the given quantity of virus, after which they were pelleted and re-supended in 200 ul of PR free/5% DSS medium containing the appropriate ligands prior to plating into 96-well plates.
as §1
We purified breast cancer cells from metastatic fluid, both pleural and ascites as well as fine needle aspirates (FNA) from recurrent breast cancer. These cells were counted and infected with adenoERreporter and after 48 hours a β-gal assay was performed. We have infected 9 metastatic effusions including 2 cell lines of passage number two, derived from pleural effusions and 4 FNAs. Tables 3 and 4 show the treatment history and characteristics of the patients that provided the samples. Where possible, some of the fluid was sent for cytology and ER staining.

estrogen receptor (ER) [4] = target: T1, estrogen receptor (ER); settings: antagonist at 10^−7M; MCF7, virus 100:1, 48 hours
Method: (§3) Cells were incubated for 48 hours following infections unless stated otherwise.
as §1

estrogen receptor (ER) [5] = assay: adeno-reporter assay in purified primary breast cancer cells (tumour, lymph node); type: cell-based, human; settings: for Reporter response: E2 10 nM, OHT 100 nM, ICI 100 nM, 48 h
Method: (§4) The product was then filtered through a nylon mesh (Lockertex Ltd, Merseyside, UK) and the filtrate centrifuged at 2000 rpm, at room temperature (RT). The pellet was re-suspended in 9 mls of RPMI/1% FCS and a cell count performed to estimate the number of tumour cells in the preparation. […] A count of viable tumour cells was performed using trypan blue (Sigma, Poole, UK) prior to seeding in breast complete medium (DMEM/F-12 containing, 15 mM Hepes, 2 mM L-glutamine, 100U/ml penicillin, O. 1 mg/ml streptomycin, 50 U/ml polymixin B, 2.5 μg/ml amphotericin B, 5 μg/ml insulin, 10 μg/ml apo-transferrin, 100 μM ethanolamine, 1 μg/ml hydrocortisone, 10 ng/ml EGF) plus 5% FCS) for culture. The cells were used for experiments on day 3 after the initial plating.
as §2, §3, §1
(§5) We have used the adeno-reporter to infect purified cells from breast cancer and lymph nodes of 19 patients. The reporter assay was performed in a blinded fashion since the IHC report of ER status was not available until after the experiments were complete. Viral infections were performed in suspension so as not to loose cancer cells since they were only loosely adherent. Following exposure to the virus for an hour, the cells were washed to remove excess virus and then plated and incubated in PR free/5% DSS supplemented with the given ligands for 48 hours.

estrogen receptor (ER) [6] = target: T1, estrogen receptor (ER); assay: as above; type: cell-based; settings: E2 10 nM, OHT 100 nM, ICI 100 nM, 48 h
Method: as §4, §2, §3, §1, §5

## C[C@]12CC[C@@H]3c4ccc(O)cc4C[C@@H](CCCCCCCCC[S+]([O-])CCCC(F)(F)C(F)(F)F)[C@H]3[C@@H]1CC[C@@H]2O (some centres unmarked) [ICI 182,780]
Estrogen receptor (ER) [1]
  β-gal expression by X-gal staining: completely abolished even basal levels of staining
Estrogen receptor (ER) [2]
  reporter activity above baseline: blocked even the baseline activity
Estrogen receptor (ER) [3]; Table 3 patient 7) T4G3N1M0, Ascites, ER−/PR−, no prior endocrine treatment
  Reporter Activity: x1.0
Estrogen receptor (ER) [3]; Table 3 patient 8) T1G1N1M0, Ascites, primary ER−/PR+, recurrent ER++/PR−, prior LHRH 11m, Arimidex
  Reporter Activity: ↓↓
Estrogen receptor (ER) [3]; patient 4 (table 3), ascites, no previous treatment
  effect on ER activity: inhibitory
Estrogen receptor (ER) [3]; relapsed patients, metastatic effusions and FNAs
  proportion of cases in which inhibitory: 50%
Estrogen receptor (ER) [4]
  effect on E2 induced reporter activity: blocked E2 induced reporter activity
Estrogen receptor (ER) [5]; Table 2 patient 3 Ln
  Reporter response: inh
Estrogen receptor (ER) [5]; Table 2 patient 5 Ln, ER+/PR−, Pre
  Reporter response: ns
Estrogen receptor (ER) [5]; Table 2 patient 8, ER+++/PR−, Post
  Reporter response: ns
Estrogen receptor (ER) [5]; Table 2 patient 11, receptor status ?
  Reporter response: inh
Estrogen receptor (ER) [5]; Table 2 patient 12 Ln
  Reporter response: ns
Estrogen receptor (ER) [5]; Table 2 patient 12 Tu, Anaplastic small cell carcinoma, ER−/PR−
  Reporter response: ns
Estrogen receptor (ER) [5]; Table 2 patient 13, ER−/PR−, Post
  Reporter response: ns
Estrogen receptor (ER) [5]; Table 2 patient 15 Ln
  Reporter response: ns
Estrogen receptor (ER) [5]; Table 2 patient 15 Tu, ER−/PR−
  Reporter response: ns
Estrogen receptor (ER) [5]; Table 2 patient 16 Ln
  Reporter response: ns
Estrogen receptor (ER) [5]; Table 2 patient 16 Tu, Post
  Reporter response: ns
Estrogen receptor (ER) [5]; Table 2 patient 17
  Reporter response: ns
Estrogen receptor (ER) [5]; Table 2 patient 18, ER−/PR−
  Reporter response: ns
Estrogen receptor (ER) [5]; purified cells from breast cancer and lymph nodes of 19 patients
  effect on reporter activity across patient samples: inhibitory in all cases
Estrogen receptor (ER) [6]; Table 2 patient 6, ER+++/PR+++
  Reporter response: inh
Estrogen receptor (ER) [6]; Table 2 patient 7, ER+++/PR+++, Post
  Reporter response: inh
